`CS(=O)(=O)Nc1cccc([C@@H](CN2CCCC2)NC(=O)C2(c3ccc4oc(=O)[nH]c4c3)CC2)c1` (stereo in doubt) had a melting point of 114 to 116 °C.
`O=C(N[C@H](CN1CCCC1)c1ccccc1)C1(c2cccc(-c3nnn[nH]3)c2)CC1` (stereo in doubt) had a melting point of 137 to 139 °C.
In turn, `O=C(N[C@H](CN1CCCC1)c1ccccc1)C1(c2ccc3ccc(=O)[nH]c3c2)CC1` (stereo in doubt) registered a melting point of 101 to 103 °C.
The figure for `O=C(O)COc1cccc(C2(C(=O)N[C@H](CN3CCCC3)c3ccccc3)CC2)c1` (stereo in doubt) is 124 to 125 °C; for `NC(=O)c1ccc(C2(C(=O)N[C@H](CN3CCCC3)c3ccccc3)CC2)cc1` (stereo in doubt) it is 201 °C; for `O=C(N[C@H](CN1CCCC1)c1ccccc1)C1(c2ccc3[nH]cnc3c2)CC1` (stereo in doubt) it is 127 to 129 °C.
Then `O=C(N[C@H](CN1CCCC1)c1ccccc1)C1(c2ccc3[nH]ncc3c2)CC1` (stereo in doubt), with 82 to 83 °C.

As a reminder, the melting point is the temperature of the solid-liquid transition.

Values taken from US9303027B2 (dated 2016).
